Values quoted from earlier work in paper PMC4905688 (Biomaterials, 2016).

Test system: ischemic limbs

For VEGF, the “Effect of local delivery on ischemia / vessels” value is given as “modest reversal of ischemia or the development of leaky blood vessels”.
